The values that follow are results of earlier work, collected in patent US20180071214A1, “Pharmaceutical Oral Dose Formulation and Composition of Matter” (priority 2016, published 2018).

For series [1] the following is noted: p-glycoprotein substrate.

Consider `CC[C@]1(O)C[C@@H]2CN(CCc3c([nH]c4ccccc34)[C@@](C(=O)OC)(c3cc4c(cc3OC)N(C)[C@H]3[C@@](O)(C(=O)OC)[C@H](OC(C)=O)[C@]5(CC)C=CCN6CC[C@]43[C@@H]65)C2)C1` [vinblastinee], for which the “tissue effect after intravenous injection” value was “severe tissue irritation and even damage”. In addition, the intestinal absorption entry in series [1] is recorded as “negligible intestinal absorption”.
